Tests used:
[1] = target: T1, TLR4 (wild-type and point mutants, TLR4 C747A) (Homo sapiens, UniProt O00206); assay: NF-κB luciferase reporter assay in HEK293 cells expressing wild-type or mutant TLR4 after LPS stimulation; type: cell-based; parameters: expressed in transfected cells; host or cells: HEK293 (human embryonic kidney); settings: concluded from reporter assay with TLR4 mutants, HEK293 (FIG. 3)
Experimental: (§1) Human embryonic kidney-derived HEK293 was suspended in DMEM containing 10% FCS, plated in a 96 well plate at 2×10^4 cells/well and cultured overnight at 37° C., 5% CO2. The medium was changed to OPTI-MEM (Invitrogen, 50 μL/well) immediately before transfection. A plasmid encoding FLAG-TLR4WT or a mutant thereof (0CA-3CA, PH, 1KR-9KR) was added to 0.5 ng/well, and transfection was performed using a PLUS reagent (Invitrogen) or a LipofectAMINE reagent (Invitrogen) according to a conventional method. The cells were cultured at 37° C., 5% CO2 for 3 hr. After culture, DMEM containing 20% FCS was added to 100 μL/well, and the cells were further cultured overnight to give forced expression cells. As common DNAs, pNiFty (plasmid for NF-κB activation measurement, 15 ng/well), phRL-TK (internal standard plasmid, 15 ng/well), MD-2 plasmid (10 ng/well) and CD14 plasmid (10 ng/well) were transfected together with wild-type TLR4 and each mutant.
(§2) The next day of the transfection, the medium of the forced expression cells was changed to DMEM containing 1% FCS, compound A (ethyl (6R)-6-[N-(2-chloro-4-fluorophenyl)sulfamoyl]-1-cyclohexene-1-carboxylate), compound B (d-ethyl 6-[N-(2,4-difluorophenyl)sulfamoyl]-1-cyclohexene-1-carboxylate), compound C (ethyl 6-[N-(2-bromo-4-fluorophenyl)sulfamoyl]-1-cyclohexene-1-carboxylate), compound D (d-ethyl 6-[(2-chloro-4-fluorobenzyl)sulfonyl]-1-cyclohexene-1-carboxylate) were added to the final concentration of 0, 30, 100, 300 nmol/L and the cells were cultured for 2 hr at 37° C., 5% CO2. LPS was added to 100 ng/mL, and the cells were further cultured for 4 hr. After culture, the luminescence of luciferase was measured using Dual-Glo™ Luciferase Assay System (Promega). For the measurement, the luminescence of firefly luciferase (derived from FL, NF-κB activation) and renilla luciferase (RL, internal standard) was measured, and CPS (counts per second) of FL was amended by CPS of RL to give FL/RL ratio.

[2] = target: T2, TLR4 (wild-type and point mutants, TLR4 C747A) (Homo sapiens, UniProt O00206, C747A); assay: as above; type: cell-based; parameters: expressed in transfected cells; host or cells: HEK293 (human embryonic kidney); settings: 0, 30, 100, 300 nmol/L, 2 hr, then LPS 100 ng/mL 4 hr; HEK293; FL/RL ratio; only this mutant (FIG. 3)
Experimental: as §1, §2

GST-TIRAP fusion protein = target: T3, GST-TIRAP fusion protein (Homo sapiens, UniProt P58753); assay: Pull-down of GST fusion protein-bound beads with ^3H-compound A, SDS-PAGE, autoradiography; type: binding; settings: beads reacted at 4° C. overnight; autoradiography (FIG. 1B)
T3 construct: made in house; host or cells: Escherichia coli
Experimental: (§3) Using the above-mentioned primer DNA and TAKARA Ex Taq and after first standing at 95° C. for 2 min in a thermal cycler, PCR was performed 30 cycles with 95° C. for 30 sec, at 55° C. for 30 sec and at 72° C. for 1 min as one cycle. Lastly, an elongation reaction was performed at 72° C. for 10 min. The amplified DNA fragment was cloned using a TA Cloning Kit (Invitrogen). The obtained plasmid vector was treated with a restriction enzyme and electrophoresed on agarose gel. The band was cleaved out using a Sephaglas B and Prep Kit (Amersham) and purified. This was inserted as an insert into vector plasmid pGEX-4T-1 (Amersham) using DNA ligation kit Ver.2 (TAKARA).
(§4) Escherichia coli was transformed with the completed plasmid, and cultured in LB medium containing ampicillin (10 mL) at 37° C. for 18 hr. Culture medium (2.4 mL) was inoculated to LB medium containing ampicillin (130 mL), and subjected to shaking culture. When OD600 became amount 0.9, isopropyl-β-D-thiogalactopyranoside (1 mol/L) was added (130 μL), and the mixture was cultivated at 30° C. for 4 hr. After cultivation, the cells were collected and 10 mL of Lysis Buffer (10 mmol/L Tris pH 7.5, […], 0.5% triton-X-100, 1 mmolp/L PMSF) was added. The cells were disrupted by ultrasonication and centrifuged. To the obtained supernatant was added Glutathione Sepharose 4B (Amersham, 300 μL), and the mixture was gently shaken at 4° C. for 60 min. After the reaction, GST fusion protein-bound beads were washed with TBS (Tris buffered saline, 50 mM Tris-HCl pH7.5, 150 mM NaCl) added with 0.1% Triton X-100.
(§5) The completed GST fusion protein-bound beads and ^3H-compound A (synthesized by Amersham) were reacted at 4° C. overnight. After the reaction, the beads were washed with 0.1% Triton X-100 added TBS, a sample buffer for 5% 2-mercaptoethanol (ME)-containing sodium dodecyl sulfate (SDS)-polyacrylamide gel electrophoresis (PAGE) was added, and the mixture was heated at 100° C. for 5-10 min. The mixture was centrifuged, the supernatant was separated as a labeled protein sample, and the protein was separated by SDS-PAGE. […]

[3] = target: T4, GST-TLR2 intracellular TIR domain fusion protein (Homo sapiens, UniProt O60603); assay: as above; type: binding; settings: beads reacted at 4° C. overnight; autoradiography (FIG. 1B)
T4 construct: GST and TIR domain of TLR2; made in house; host or cells: Escherichia coli
Experimental: as §3, §4, §5

[4] = target: T5, GST-TLR4 intracellular TIR domain fusion protein (Homo sapiens, UniProt O00206); assay: as above; type: binding; settings: beads reacted at 4° C. overnight; autoradiography (FIG. 1B)
T5 construct: made in house; host or cells: Escherichia coli
T5 sequence (O00206 674-839): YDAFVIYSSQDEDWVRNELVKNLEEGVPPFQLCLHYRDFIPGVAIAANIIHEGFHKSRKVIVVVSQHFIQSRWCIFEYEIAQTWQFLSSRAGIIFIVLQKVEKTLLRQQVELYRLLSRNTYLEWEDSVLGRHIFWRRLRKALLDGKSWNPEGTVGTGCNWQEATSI
Experimental: as §3, §4, §5

[5] = target: T1, TLR4 (wild-type and point mutants, TLR4 C747A); assay: Binding of ^3H-compound A to FLAG-TLR4 wild-type and point mutants expressed in COS-7 cells (anti-FLAG immunoprecipitation, autoradiography); parameters: expressed in transfected cells; settings: concluded from mutant binding, COS-7 cells (FIG. 2)
Text: (§6) cDNA encoding TLR4 was obtained by a conventional method using PCR, and incorporated into expression vector pEFBos. Each point mutant was produced using QuikChange II Site-directed Mutagenesis Kit (manufactured by Stratagene). A mismatch corresponding to a mutation was introduced into both ends of a primer according to the manual of the kit. The produced primers are as follows (mutant introduction sites are underlined). Thereafter, a mutant was produced according to the manual and a competent cell was transformed therewith. Single colonies were picked up, a plasmid was prepared according to a conventional method and DNA sequence was confirmed to give a plasmid containing each mutant TLR4.
(§7) Escherichia coli was transformed with the produced plasmids, about 500-700 μg thereof was each purified using EndoFree (R) Plasmid Maxi Kit (Quiagen). […]
(§8) The immunoprecipitated was applied to SDS-PAGE to separate the protein, and the gel after migration was immersed in a blotting buffer for 15 min to remove SDS. […] The luminescence of the band was photographed on an X ray film, Kodak Biomax-MS, and the protein expression level was confirmed (FIG. 2; the upper panel). The photographed PVDF membrane was washed with PBS-T, photosensitized on imaging plate TR-2040 for 7 days, and the amount of ^3H bound to the expressed protein was measured using BAS-2500 (FUJIFILM Corporation).

[6] = target: T2, TLR4 (wild-type and point mutants, TLR4 C747A); assay: as above; parameters: expressed in transfected cells; settings: 100 nmol/L, 6 hr, COS-7 cells; only this mutant among 1CA-4CA, PH, 1KR-9KR (FIG. 2)
Text: as §6, §7, §8

T1 sequence (O00206 24-839 C747A): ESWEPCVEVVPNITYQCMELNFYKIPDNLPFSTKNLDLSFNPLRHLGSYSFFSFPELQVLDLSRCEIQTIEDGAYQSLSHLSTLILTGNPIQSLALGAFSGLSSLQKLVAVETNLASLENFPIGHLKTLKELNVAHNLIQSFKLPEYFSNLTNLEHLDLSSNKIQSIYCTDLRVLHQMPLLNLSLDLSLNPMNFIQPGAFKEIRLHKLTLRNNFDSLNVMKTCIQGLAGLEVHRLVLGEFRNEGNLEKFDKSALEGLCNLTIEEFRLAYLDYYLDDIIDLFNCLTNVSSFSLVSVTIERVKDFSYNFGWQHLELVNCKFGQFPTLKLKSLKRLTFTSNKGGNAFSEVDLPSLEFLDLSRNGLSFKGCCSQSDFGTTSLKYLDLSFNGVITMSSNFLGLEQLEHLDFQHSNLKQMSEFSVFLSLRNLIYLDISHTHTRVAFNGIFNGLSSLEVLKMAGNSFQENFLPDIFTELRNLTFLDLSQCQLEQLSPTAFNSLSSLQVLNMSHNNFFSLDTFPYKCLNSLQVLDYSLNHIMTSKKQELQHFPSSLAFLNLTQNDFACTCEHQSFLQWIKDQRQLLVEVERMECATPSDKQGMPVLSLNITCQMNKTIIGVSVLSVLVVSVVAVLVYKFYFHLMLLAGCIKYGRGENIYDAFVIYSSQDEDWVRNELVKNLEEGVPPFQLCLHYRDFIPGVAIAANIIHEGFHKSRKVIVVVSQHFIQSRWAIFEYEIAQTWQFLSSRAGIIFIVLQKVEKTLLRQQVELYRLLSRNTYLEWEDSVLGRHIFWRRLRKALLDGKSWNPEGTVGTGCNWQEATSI
T2 sequence (O00206 24-839 C747A): as above
T4 sequence (O60603 639-782 limits assumed): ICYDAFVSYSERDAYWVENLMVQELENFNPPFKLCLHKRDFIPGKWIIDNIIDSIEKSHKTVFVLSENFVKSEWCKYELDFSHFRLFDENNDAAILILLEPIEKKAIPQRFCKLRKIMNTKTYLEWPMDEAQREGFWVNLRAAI
T3 sequence (P58753 1-235 isoform P58753-2): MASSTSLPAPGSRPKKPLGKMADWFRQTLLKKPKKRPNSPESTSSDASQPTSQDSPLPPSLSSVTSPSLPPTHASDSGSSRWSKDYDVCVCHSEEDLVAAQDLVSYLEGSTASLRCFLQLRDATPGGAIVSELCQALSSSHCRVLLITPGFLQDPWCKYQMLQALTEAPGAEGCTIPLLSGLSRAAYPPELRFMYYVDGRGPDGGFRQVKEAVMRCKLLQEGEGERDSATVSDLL

| binding site in TLR4 through which the signal is suppressed [1] | signal suppressing action when 747th cysteine of TLR4 mutated to alanine [2] | binding of ^3H-compound A to GST-TIRAP fusion protein (GST-TIRAP fusion protein) | binding of ^3H-compound A to GST-TLR2 intracellular TIR domain fusion protein [3] | binding of ^3H-compound A to GST-TLR4 intracellular TIR domain fusion protein [4] | binding site of compound A in TLR4 [5] | binding amount of ^3H-compound A to TLR4 with 747th cysteine mutated to alanine [6] | SMILES |
| --- | --- | --- | --- | --- | --- | --- | --- |
| selectively bind to the 747th cysteine | disappeared | – | – | – | – | – | CCOC(=O)C1=CCCCC1S(=O)(=O)Nc1ccc(F)cc1Br (stereo not shown) [compound C, ethyl 6-[N-(2-bromo-4-fluorophenyl)sulfamoyl]-1-cyclohexene-1-carboxylate] |
| selectively bind to the 747th cysteine | disappeared | – | – | – | – | – | CCOC(=O)C1=CCCCC1S(=O)(=O)Nc1ccc(F)cc1F (stereo not drawn) [compound B, d-ethyl 6-[N-(2,4-difluorophenyl)sulfamoyl]-1-cyclohexene-1-carboxylate] |
| selectively bind to the 747th cysteine | disappeared | – | – | – | – | – | CCOC(=O)C1=CCCCC1S(=O)(=O)Cc1ccc(F)cc1Cl (stereo not drawn) [compound D, d-ethyl 6-[(2-chloro-4-fluorobenzyl)sulfonyl]-1-cyclohexene-1-carboxylate] |
| selectively bind to the 747th cysteine | disappeared | not bound | not bound | selectively bound | selectively bound to the 747th cysteine | remarkably decreased | CCOC(=O)C1=CCCC[C@H]1S(=O)(=O)Nc1ccc(F)cc1Cl [compound A, ethyl (6R)-6-[N-(2-chloro-4-fluorophenyl)sulfamoyl]-1-cyclohexene-1-carboxylate] |
